# “Also recorded” adds a separate entry of the source. Ends that are not written are not given here. * marks the point of attachment. Biotin = O=C1N[C@H]2[C@H](CS[C@H]2CCCCC(=O)*)N1
# How the values were obtained:
# [1] = tested on: E. coli K-12 proteins (E. coli proteome chip); assay: E. coli proteome chip assay; format: binding; details: 10 nM N-terminal biotinylated LfcinB, 1% BSA, room temperature, 1 h; ratio DyLight 649 to DyLight 549, ProCAT local cut-off; triplicate
# Description: To fabricate the proteome chips, E. coli K-12 proteins were expressed and purified in a high-throughput fashion. The procedure was modified from Chen et al.. Briefly, E. coli protein expression clones fused with a 6×-His tag, provided by Dr. Mori, were first incubated with glass beads (Biospec Products Inc.) in 2× LB medium containing 30 µg/ml chloramphenicol in 96 DeepWell™ plates (Nunc) at 37°C overnight. The overnight cultures were then diluted with 2× LB that contains 30 µg/ml chloramphenicol to the OD595 value of 0.1. When the cells grew to an OD595 value of 0.7–0.9, 500 µM of isopropyl β-D-thiogalactoside (IPTG) was added to induce protein expression at 37°C for ∼3.5 h. The cultures were then harvested by centrifugation at 3220 g for 5 min at 4°C, and the pellets were stored at −80°C before purification. […]
# For image processing of chip assay results, Genepix Pro 6.0 was used to align the protein spot of each individual protein and then all aligned protein image signals were exported as a text file. The text file was analyzed by ProCAT [17], a signal normalization method. The relative ability of LfcinB to bind to each protein was estimated by the ratio of the fluorescence intensity of LfcinB to the fluorescence intensity of an anti-His antibody after the normalization. […]
# E. coli K-12 MG1655 = assay: E. coli growth inhibition (growth curves, OD595); format: cell-based; details: 22.4 µM, approx. 10^7 CFU/ml, LB medium, 37°C with shaking, OD595 every 20 min for 7 h 20 min, PBS negative control, Figure 2
# Description: The E. coli K-12 MG1655 strain was first inoculated into LB medium and incubated at 37°C with shaking for 16 h. After incubation, the culture was diluted to approximately 10^7 CFU/ml using LB medium. Then, 22.4 µM of N-terminal biotinylated LfcinB (Kelowna Inc.), LfcinB (Kelowna Inc.) or biotin (Thermo) were individually added to the diluted cultures in a 96-well plate. PBS was used as a negative control. Finally, each compound or PBS with E. coli was incubated at 37°C with shaking and the growth curves were observed by measuring the OD595 value every 20 min for 7 h 20 min in a microplate reader (Synergy 2, BioTek®).
Compound,"number of proteins selected as LfcinB-binding (top 5% of the E. coli proteome, membrane proteins ruled out) [1] [proteins]",growth curves / inhibition of E. coli growth (E. coli K-12 MG1655)
"biotinylated LfcinB: N-terminal biotinylated LfcinB (Kelowna Inc.), used as probe in chip assays (Biotin-FKCRRWQWRMKKLGAPSITCVRRAF; ends and bridges not checked)",153,exhibited the same inhibition of E. coli growth; also recorded: exhibit the same antibacterial activity
"O=C(O)CCCC[C@@H]1SC[C@@H]2NC(=O)N[C@@H]21 [biotin, reference compound]",–,had no influence on E. coli growth

# — PMC3229523, “Identification of Lactoferricin B Intracellular Targets Using an Escherichia coli Proteome Chip” (PLoS ONE, 2011)
